Source: US6403554B2, “Polyunsaturated fatty acid derivatives and their use” (Ardenia Investments Ltd., priority 1998, dated 2002)
“Also recorded” adds a separate entry of the source.

Assays:
Type in all cases: in vivo, C57B1/6 mice
[1] = test system: antibody-forming cells (AFC) in the spleen; experiment: Influence of AFP/compound complexes and their components on humoral immune response (AFC in spleen); conditions: for Immunogenic activity: compound alone; for Dose at which immunostimulating effect in vivo is displayed: compound in a complex with AFP
Procedure: 0.15 ml of AFP/Compound 3 complex was administered intravenously to 6 mice males of C57B1/6 line (weight 18-22 g) in the dose of […] of AFP and 45.5 μg of compound 3 per capita. Simultaneously suspension of 5·10^7 sheep erythrocytes was injected intraperitoneally (0.2 ml per capita). In the group with compound 3 mice were injected intravenously by one in the dose of 45.5 μg. Animals of group with AFP received 9 μg of AFP. Mice of control group were injected intravenously with equal volume of saline. Complex AFP/Compound 3 effect on humoral immune response was analyzed by counting the quantity of AFC in the spleen according to Cunningham (per 10^6 spleen cells and per spleen).
0.15 ml of AFP/Compound 2a complex (1:100) was administered intravenously to 6 mice males of C57B1/6 line (weight 18-22 g) in the dose of 9 μg of AFP and 45.5 μg of compound 2a per capita. Simultaneously, a suspension of 5·10^7 sheep erythrocytes was injected intraperitoneally (0.2 ml per capita). In the group with compound 2a mice were injected intravenously by one in the dose of 45.5 μg. Animals of group with AFP received 9 μg of AFP. Mice in the control group were injected intravenously with an equal volume of saline. The effect of the AFP/Compound 2a complex on humoral immune response was analyzed by counting the quantity of AFC in the spleen according to Cunningham (per 10^6 spleen cells and per spleen).
(§1) 0.15 ml of AFP/Compound 10 complex (1:200) was administered intravenously to 6 male mice of C57B1/6 line (weight 18-22 g) in the dose of 9 μg of AFP and 91 μg of compound 10 per capita. Simultaneously, a suspension of 5·10^7 sheep erythrocytes was injected intraperitoneally (0.2 ml per capita). In the group receiving compound 10 mice were injected intravenously by one in the dose of 91 μg. Animals in the group with AFP received 9 μg of AFP. Micein the control group were injected intravenously with an equal volume of saline. The effect of the AFP/Compound 10 complex on humoral immune response was analyzed by counting the quantity of AFC in the spleen according to Cunningham (per 10^6 spleen cells and per spleen).
as §1, with “AFP/Compound 14” for “AFP/Compound 10”, “compound 14” for “compound 10”, “group with” for “group receiving”, “Animals of” for “Animals in the”, “AFP. Mice in” for “AFP. Micein”
0.15 ml of AFP/Compound 7 complex (1:200) was administered intravenously to 6 male mice of C57B1/6 line (weight 18-22 g) in the dose of 9 μg of AFP and 91 μg of compound 7 per capita. Simultaneously, a suspension of 5·10^7 sheep erythrocytes was injected intraperitoneally (0.2 ml per capita). In the group with compound 7 mice were injected intravenously by one in the dose of 91 μg. Animals of group with AFP received 9 μg of AFP. Mice of control group were injected intravenously with equal volume of saline. AFP/Compound 7 complex effect on humoral immune response was analyzed by counting the quantity of AFC in the spleen according to Cunningham (per 10^6 spleen cells and per spleen).
0.15 ml of AFP/Compound 15 complex (1:200) was administered intravenously to 6 mice males of C57B1/6 line (weight 18-22 g) in the dose of 9 μg of AFP and 91 μg of compound 15 per capita. Simultaneously, a suspension of 5·10^7 sheep erythrocytes was injected intraperitoneally (0.2 ml per capita). In the group receiving compound 15, the mice were injected intravenously by one in the dose of 91 μg. Animals in the AFP-group received 9 μg of AFP. […]

[2] = test system: antibody-forming cells (AFC) in the spleen; experiment: Humoral immune response: counting antibody-forming cells (AFC) in the spleen according to Cunningham, mice immunised with sheep erythrocytes; conditions: for Amount of antibody-forming cells per 10^6 spleen cells, M ± SEM (relative amount of AFC) / Amount of antibody-forming cells per spleen, M ± SEM (total AFC amount): 5-th day after injection, female mice; for Effect, % on AFC per 10^6 spleen cells / Effect, % on AFC per spleen: versus animals immunised only with sheep erythrocytes; for immunostimulating action: dose of 136.5 μg/mouse; for Immunogenic activity: doses of 45.5 and 91 μg/mouse
Procedure: (§2) 0.15 ml of compound 10 was administered intravenously to 6 mice females of CS7B1/6 line (weight 18-22 g) in doses of 45.5, 91 and 136.5 μg of compound 10 per capita for each testing group according to the dose. Simultaneously, a suspension of 5·10^7 sheep erythrocytes was injected intraperitoneally (0.2 ml per capita). Mice in the control group were injected intravenously with equal volume of saline. The effects of compound 10 on humoral immune response were analyzed both by counting the quantity of AFC in the spleen according to Cunningham (per 10^6 spleen cells and per spleen) and estimating the titers of hemagglutining antibodies in serum of the animals (Cunningham A. J., Nature, 1965, Vol.207, No 5001. P.1106-1107), while the titers of hemagglutinating antibodies were evaluated according to litterature (Evans J. et al., Cell, 1974; Vol 3., p.153-158, Feizi T., Menger E., Transfusion, 1970, Vol. 10, p.33-35,).
(§3) 0.15 ml of compound 11 was administered intravenously to 6 female mice of the C57B1/6 line (weight 18-22 g) in doses of 45.5, 91 and 136.5 μg of compound 11 per capita for each testing group according to the dose. Simultaneously, a suspension of 5·10^7 sheep erytrocytes was injected intraperitoneally (0.2 ml per capita). Mice in the control group were injected intravenously with an equal volume of saline. The effects of compound 11 on humoral immune response was analysed both by counting the quantity of AFC in the spleen according to Cunningham (per 10^6 spleen cells and per spleen) and estimating the titers of hemagglutining antibodies in serum of the animals.
as §3, with “12” for “11”, “erythrocytes” for “erytrocytes”, “analyzed” for “analysed”
as §3, with “compound 8” for “compound 11”, “sheep erythrocytes” for “sheep erytrocytes”, “Mice of” for “Mice in”, “response were analyzed” for “response was analysed”
as §3, with “compound 3” for “compound 11”, “Mice of” for “Mice in”, “with” for “with an”, “response were” for “response was”
(§4) 0.15 ml of compound 4 was administered intravenously to 6 female mice of the C57B1/6 line (weight 18-22 g) in a doses of 45.5, 91 and 136.5 μg of compound 4 per capita for each testing group according to the dose. Simultaneously, a suspension of 5·10^7 sheep erythrocytes was injected intraperitoneally (0.2 ml per capita). […]

[3] = test system: hemagglutinating antibodies in serum; experiment: Humoral immune response: titers of hemagglutinating antibodies in serum; conditions: for Amount of hemagglutinins: serum, female mice; for Effect, % on hemagglutinins: versus control
Procedure: as §2, §3
as §3, with “12” for “11”, “erythrocytes” for “erytrocytes”, “analyzed” for “analysed”
as §3, with “compound 8” for “compound 11”, “sheep erythrocytes” for “sheep erytrocytes”, “Mice of” for “Mice in”, “response were analyzed” for “response was analysed”
as §3, with “compound 3” for “compound 11”, “Mice of” for “Mice in”, “with” for “with an”, “response were” for “response was”
as §4

Structure (SMILES)	Immunogenic activity ([1]; 91 μg/mouse)	Dose at which immunostimulating effect in vivo is displayed [1]	Amount of antibody-forming cells per 10^6 spleen cells, M ± SEM (relative amount of AFC) ([2]; 45.5 μg/mouse i.v.)	Amount of antibody-forming cells per spleen, M ± SEM (total AFC amount) ([2]; 45.5 μg/mouse i.v.)	Effect, % on AFC per 10^6 spleen cells ([2]; 45.5 μg/mouse i.v.)	Effect, % on AFC per spleen ([2]; 45.5 μg/mouse i.v.)	Amount of antibody-forming cells per 10^6 spleen cells, M ± SEM (relative amount of AFC) ([2]; 91 μg/mouse i.v.)	Amount of antibody-forming cells per spleen, M ± SEM (total AFC amount) ([2]; 91 μg/mouse i.v.)	Effect, % on AFC per 10^6 spleen cells ([2]; 91 μg/mouse i.v.)	Effect, % on AFC per spleen ([2]; 91 μg/mouse i.v.)	Amount of antibody-forming cells per 10^6 spleen cells, M ± SEM (relative amount of AFC) ([2]; 136.5 μg/mouse i.v.)	Amount of antibody-forming cells per spleen, M ± SEM (total AFC amount) ([2]; 136.5 μg/mouse i.v.)	immunostimulating action [2]	Immunogenic activity [2]	Effect, % on hemagglutinins ([3]; 91 μg/mouse i.v.)	Effect, % on hemagglutinins ([3]; 136.5 μg/mouse i.v.)	other results
CCCCC/C=C\C/C=C\C/C=C\C/C=C\CCCC(=O)N[C@H](C(=O)O)[C@@H](C)OP(=O)(O)O [Compound 7, N-arachidonoyl-o-phospho-L-threonine]	no immunogenic activity; also recorded: do not inhibit immunogenic activity	91 μg/mouse	–	–	–	–	–	–	–	–	–	–	–	–	–	–	–
CC1=C(/C=C/C(C)=C/C=C/C(C)=C/C(=O)NCCOP(=O)(O)O)C(C)(C)CCC1 [Compound 1, N-(all-trans-retinoyl)-o-phospho-2-aminoethanol]	–	45.5 μg/mouse	–	–	–	–	–	–	–	–	–	–	–	–	–	–	Immunogenic activity ([1]; 45.5 μg/mouse): no immunogenic activity; also recorded: do not inhibit immunogenic activity
CC/C=C\C/C=C\C/C=C\C/C=C\C/C=C\C/C=C\CCC(=O)N[C@@H](Cc1ccc(OP(=O)(O)O)cc1)C(=O)O [Compound 12, N-docosahexaenoyl-o-phospho-L-tyrosine]	–	–	263.8±23.6	31.8±2.8 × 10^3	−9.4 p >0.05%	−9.1 p >0.05%	307.8±30.9	40.2±2.7 × 10^3	+5.7 p > 0.05%	+14.9 p > 0.05%	682.6±33.3	69.6±6.0 × 10^3	high immunostimulating action	no immunogenic activity	+2.8 p > 0.05%	+7.7 p > 0.05%	Amount of hemagglutinins ([3]; 45.5 μg/mouse i.v.): 7.4 ± 0.3 Log2 T; Effect, % on hemagglutinins ([3]; 45.5 μg/mouse i.v.): +2.8 p >0.05%; Amount of hemagglutinins ([3]; 91 μg/mouse i.v.): 7.4 ± 0.3 Log2 T; Amount of hemagglutinins ([3]; 136.5 μg/mouse i.v.): 7.8 ± 0.3 Log2 T
CC/C=C\C/C=C\C/C=C\CCCCCCCC(=O)NCCOP(=O)(O)O [Compound 17, N-linolenoyl-o-phospho-2-aminoethanol]	–	–	457.3±40.7	51.1±4.4 × 10^3	−3.0 p > 0.05%	−7.4 p > 0.05%	523.8±45.3	63.5±5.1 × 10^3	+11.1 p > 0.05%	+15.0 p > 0.05%	619.6±38.9	71.6±4.7 × 10^3	marked immunostimulating action	no immunogenic activity	+2.6 p > 0.05%	+2.6 p > 0.05%	–
CC/C=C\C/C=C\C/C=C\C/C=C\C/C=C\CCCC(=O)N[C@H](C(=O)O)[C@@H](C)OP(=O)(O)O [Compound 15, N-eicosapentaenoyl-o-phospho-L-threonine]	no immunogenic activity; also recorded: do not inhibit immunogenic activity	91 μg/mouse	–	–	–	–	–	–	–	–	–	–	–	–	–	–	–
